The source of these data is ChEMBL document CHEMBL1201862, “PubChem BioAssay data set” (2004).

For orientation: IC50 means the point on the concentration scale where inhibition reaches its midpoint. As usually defined, the AC50 is the concentration giving half of the maximal activity seen. In general, EC50 refers to the concentration at which the effect is half-maximal. Broadly, the CC50 is the concentration that lowers cell viability or growth by half.

In series [1] the target is Genome polyprotein (dengue virus type 2, UniProt P29990). In words: flavivirus cap methylation enzyme inhibition – biochemical, confirmation dose response, primary screen (AID 588689). Format: functional.
Series [2] concerns the target Cytochrome P450 3A4 (Homo sapiens, UniProt P08684).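 Note: CYP3A4 tested as one member of a cytochrome P450 panel screen.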
The target of series [3] is Cytochrome P450 2D6 (Homo sapiens, UniProt P10635).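 Note: CYP2D6 member of a cytochrome P450 panel assay.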
In series [4] the target is Cytochrome P450 2C19 (Homo sapiens, UniProt P33261). As to the kind of experiment: Cytochrome panel assay with activity outcomes. Panel member name: p450-cyp2c19 Compounds with AC50 equal or less than 10 uM are considered active. The series is classed as functional. The conditions noted are these: read-out: AC50.
Series [5] is described as follows: cells. Format: functional, cell-based.
A short description of series [6]: non-specific 3'UTR reporter inhibition in Clone20-Shn3RL – cell-based, Renilla luciferase, cherry-picked, counter-screen for Shn3 inhibitor project, dose response (AID 624133). The series is classed as functional. (The purpose of a counterscreen is to sort out artefacts and off-target activity.)
Series [7] deals with Vero. In words: cells. The series is classed as functional. The conditions noted are these: Chlorocebus sabaeus.
Series [8] in a line: loss of viability in HepG2 cells – cell-based, CellTiter-Glo, cherry-picked, cytotoxicity control for Shn3 inhibitor project, dose response (AID 624134). The series is classed as functional. Background: In ATP-based viability assays light output follows the ATP content of the culture.
Series [9] is described as follows: Counterscreen for AddAB inhibitors: absorbance-based bacterial cell-based high throughput dose response assay for inhibitors of bacterial viability. [Related pubchem assays (depositor defined):AID435030, AID449728, AID449731, AID488942, AID488955, AID488956]. The series is classed as functional.
The test system of series [10] is Streptococcus sp. 'group A'. As to the kind of experiment: Streptococcus pyogenes SK(-)GAS viability under kanamycin – luminescence, BacTiterGlo, confirmation, counter-screen for streptokinase expression inhibitor project, dose response (AID 1900). The series is classed as functional, organism-based.
The nature of series [11]: NIH3T3 cell viability loss – ATP luminescence, mouse fibroblasts, counter-screen, dose response (AID 2010).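 Note: cells exposed to compound for about 90 hours before reading.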 Format: functional, cell-based.
The nature of series [12]: Trypanosoma cruzi growth suppression in host cells – NIH3T3 host cells, beta-gal luminescence, confirmation (AID 2044).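 Note: intracellular parasites grown in NIH/3T3 mouse fibroblasts as host cells; luminescent beta-galactosidase reporter signal from transgenic T. cruzi replicating inside host cells; inhibitors lower the luminescence signal.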 The series is classed as functional, cell-based.
Series [13] relates to Streptococcus. In words: GAS UMAA2166 growth inhibition – luminescence, BacTiterGlo, counter-screen for streptokinase expression inhibitor project, dose response (AID 1915).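 Note: potency for reduction of bacterial viability or growth.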 The series is classed as functional, organism-based.
Series [14] in a line: reduction of Shn3 3'UTR-driven luciferase in osteoblasts – cell-based, Clone20 osteoblasts, firefly luciferase, cherry-picked, dose response (AID 624132).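 Note: firefly luciferase luminescence from reporter carrying the Shn3 3'UTR in osteoblasts.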 The series is classed as functional.
The target of series [15] is T1, Exodeoxyribonuclease V (Escherichia coli (strain K12), UniProt P04993+P07648+P08394).
T1 sequence (P04993 whole entry): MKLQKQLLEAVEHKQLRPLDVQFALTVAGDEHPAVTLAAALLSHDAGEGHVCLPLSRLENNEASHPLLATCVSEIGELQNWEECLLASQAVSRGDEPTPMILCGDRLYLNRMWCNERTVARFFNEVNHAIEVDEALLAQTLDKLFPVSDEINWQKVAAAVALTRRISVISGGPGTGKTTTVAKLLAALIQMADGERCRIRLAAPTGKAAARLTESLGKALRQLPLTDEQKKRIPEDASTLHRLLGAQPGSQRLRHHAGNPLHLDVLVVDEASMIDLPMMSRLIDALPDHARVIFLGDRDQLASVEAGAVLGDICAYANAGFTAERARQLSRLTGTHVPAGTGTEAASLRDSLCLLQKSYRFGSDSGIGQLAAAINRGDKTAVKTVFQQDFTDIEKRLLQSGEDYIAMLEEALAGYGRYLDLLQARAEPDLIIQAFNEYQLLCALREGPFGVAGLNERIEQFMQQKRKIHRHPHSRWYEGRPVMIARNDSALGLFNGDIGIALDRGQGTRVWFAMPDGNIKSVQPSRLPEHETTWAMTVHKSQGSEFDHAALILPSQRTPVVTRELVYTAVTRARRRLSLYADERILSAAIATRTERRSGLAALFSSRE
T1 sequence (P07648 whole entry): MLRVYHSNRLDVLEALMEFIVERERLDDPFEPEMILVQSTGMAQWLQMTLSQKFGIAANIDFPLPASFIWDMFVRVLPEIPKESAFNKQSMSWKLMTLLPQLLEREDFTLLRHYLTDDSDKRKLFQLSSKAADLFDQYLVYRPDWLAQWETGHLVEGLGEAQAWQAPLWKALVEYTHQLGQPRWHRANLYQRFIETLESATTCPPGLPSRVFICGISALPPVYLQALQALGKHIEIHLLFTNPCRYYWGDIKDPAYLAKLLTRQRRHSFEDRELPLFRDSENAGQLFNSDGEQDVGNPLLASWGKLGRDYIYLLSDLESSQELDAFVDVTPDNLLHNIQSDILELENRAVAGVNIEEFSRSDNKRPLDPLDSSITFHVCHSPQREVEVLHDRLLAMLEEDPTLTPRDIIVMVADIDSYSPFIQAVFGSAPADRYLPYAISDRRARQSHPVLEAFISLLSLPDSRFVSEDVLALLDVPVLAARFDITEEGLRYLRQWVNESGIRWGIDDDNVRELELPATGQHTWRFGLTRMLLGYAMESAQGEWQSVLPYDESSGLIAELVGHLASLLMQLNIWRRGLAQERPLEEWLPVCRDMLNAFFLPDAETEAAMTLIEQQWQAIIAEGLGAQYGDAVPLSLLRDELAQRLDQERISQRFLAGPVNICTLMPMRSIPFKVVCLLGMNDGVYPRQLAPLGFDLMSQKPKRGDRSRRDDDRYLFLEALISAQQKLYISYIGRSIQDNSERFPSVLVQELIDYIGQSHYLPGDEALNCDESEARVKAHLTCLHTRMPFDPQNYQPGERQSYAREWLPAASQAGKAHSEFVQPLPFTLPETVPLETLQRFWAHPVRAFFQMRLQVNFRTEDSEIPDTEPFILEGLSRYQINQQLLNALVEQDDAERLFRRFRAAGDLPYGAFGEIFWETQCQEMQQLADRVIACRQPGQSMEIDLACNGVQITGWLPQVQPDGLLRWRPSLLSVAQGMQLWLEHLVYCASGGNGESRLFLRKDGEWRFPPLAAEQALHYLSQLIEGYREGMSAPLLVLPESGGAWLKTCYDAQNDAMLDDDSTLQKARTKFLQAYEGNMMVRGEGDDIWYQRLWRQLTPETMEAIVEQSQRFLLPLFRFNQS
T1 sequence (P08394 whole entry): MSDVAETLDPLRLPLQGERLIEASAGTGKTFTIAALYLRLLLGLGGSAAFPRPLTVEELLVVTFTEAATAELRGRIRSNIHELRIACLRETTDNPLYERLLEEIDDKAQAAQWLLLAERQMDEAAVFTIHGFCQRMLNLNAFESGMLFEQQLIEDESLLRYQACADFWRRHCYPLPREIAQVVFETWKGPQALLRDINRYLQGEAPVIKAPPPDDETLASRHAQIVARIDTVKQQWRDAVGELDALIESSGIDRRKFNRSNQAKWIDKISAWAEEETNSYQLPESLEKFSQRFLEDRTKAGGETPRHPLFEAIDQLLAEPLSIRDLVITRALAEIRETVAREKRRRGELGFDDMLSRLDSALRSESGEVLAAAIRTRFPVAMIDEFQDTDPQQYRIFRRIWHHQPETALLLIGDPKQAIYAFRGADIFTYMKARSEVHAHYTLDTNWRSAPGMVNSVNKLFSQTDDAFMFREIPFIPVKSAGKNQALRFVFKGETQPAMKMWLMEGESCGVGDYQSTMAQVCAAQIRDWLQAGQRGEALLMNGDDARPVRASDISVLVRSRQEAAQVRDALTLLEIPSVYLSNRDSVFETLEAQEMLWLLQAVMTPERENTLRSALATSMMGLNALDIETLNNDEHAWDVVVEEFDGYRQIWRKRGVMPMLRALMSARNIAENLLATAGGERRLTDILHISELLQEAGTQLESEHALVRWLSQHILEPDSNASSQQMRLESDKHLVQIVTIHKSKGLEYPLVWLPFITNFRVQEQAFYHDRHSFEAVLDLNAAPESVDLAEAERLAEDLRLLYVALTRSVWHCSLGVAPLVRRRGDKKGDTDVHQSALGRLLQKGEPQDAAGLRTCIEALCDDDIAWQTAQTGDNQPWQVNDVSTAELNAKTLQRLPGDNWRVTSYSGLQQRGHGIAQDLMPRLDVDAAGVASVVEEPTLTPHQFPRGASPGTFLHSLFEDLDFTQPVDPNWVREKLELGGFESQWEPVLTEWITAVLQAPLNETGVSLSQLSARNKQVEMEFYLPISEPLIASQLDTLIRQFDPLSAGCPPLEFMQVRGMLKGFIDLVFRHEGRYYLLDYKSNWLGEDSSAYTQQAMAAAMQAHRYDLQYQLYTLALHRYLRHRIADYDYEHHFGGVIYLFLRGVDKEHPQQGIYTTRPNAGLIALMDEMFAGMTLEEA
As to the kind of experiment: RecBCD inhibition via phage-restricted bacterial growth – absorbance, V66 E. coli, mutant T4 phage, counter-screen for AddAB inhibitor project, dose response (AID 492957). Format: functional, cell-based, Escherichia coli str. K-12 substr. MG1655.

Series [16] in a line: cells. The series is classed as functional, cell-based. This is another data set of the same source.
For series [17], the system named is INS1. As to the kind of experiment: INS-1E survival protection against cytokine death – cell-based, luminescence, retest, dose response (AID 449756).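 Note: cell death triggered by IL-1 beta plus TNF-alpha plus IFN-gamma mixture; protective hits raise ATP signal compared with cytokine alone wells.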 Format: functional. The conditions noted are these: Rattus norvegicus.
The target in series [18] is Peroxisome proliferator-activated receptor gamma/Nuclear receptor coactivator 2 (Homo sapiens, UniProt P37231). As to the kind of experiment: TR-FRET dose response biochemical High Throughput Screening assay for agonists of the steroid receptor coactivator 2 (SRC-2) recruitment by the peroxisome proliferator-activated receptor gamma (PPAR gamma): non-selective agonists. [Related pubchem assays: 1297, 1032 ]. Format: functional.

Series [19] in a line: HPDE-C7 pancreatic duct cell viability loss – fluorescence, HTS (AID 430). Format: functional, cell-based. The conditions noted are these: Homo sapiens.
Series [20] in a line: viability loss of HPDE-C7K cells – cell-based, fluorescence, HTS, primary screen (AID 431). The conditions noted are these: Homo sapiens. The series is classed as functional.
Series [21] has as its target Peroxisome proliferator-activated receptor gamma/Nuclear receptor coactivator 1 (Homo sapiens, UniProt P37231). In words: TR-FRET dose response biochemical High Throughput Screening assay for agonists of the steroid receptor coactivator 1 (SRC-1) recruitment by the peroxisome proliferator-activated receptor gamma (PPAR gamma): non-selective agonists. [Related pubchem assays (depositor defined):AID1300, AID1808, AID504735, AID631]. Format: protein assay. (In general: Time-resolved FRET reads energy transfer from a long-lived donor to a nearby acceptor.)

Series [22] concerns the target Peroxisome proliferator-activated receptor gamma/Nuclear receptor coactivator 3 (Homo sapiens, UniProt P37231). As to the kind of experiment: TR-FRET dose response biochemical High Throughput Screening assay for agonists of the steroid receptor coactivator 3 (SRC-3) recruitment by the peroxisome proliferator-activated receptor gamma (PPAR gamma): non-selective agonists. [Related pubchem assays: 1301 (Confirmation screen.), 1048 (Primary screen.)]. Format: functional.

Molecules are shown by their SMILES. Activity calls are given as the source filed them.

Chain of Cytochrome P450 3A4 (P08684 whole entry): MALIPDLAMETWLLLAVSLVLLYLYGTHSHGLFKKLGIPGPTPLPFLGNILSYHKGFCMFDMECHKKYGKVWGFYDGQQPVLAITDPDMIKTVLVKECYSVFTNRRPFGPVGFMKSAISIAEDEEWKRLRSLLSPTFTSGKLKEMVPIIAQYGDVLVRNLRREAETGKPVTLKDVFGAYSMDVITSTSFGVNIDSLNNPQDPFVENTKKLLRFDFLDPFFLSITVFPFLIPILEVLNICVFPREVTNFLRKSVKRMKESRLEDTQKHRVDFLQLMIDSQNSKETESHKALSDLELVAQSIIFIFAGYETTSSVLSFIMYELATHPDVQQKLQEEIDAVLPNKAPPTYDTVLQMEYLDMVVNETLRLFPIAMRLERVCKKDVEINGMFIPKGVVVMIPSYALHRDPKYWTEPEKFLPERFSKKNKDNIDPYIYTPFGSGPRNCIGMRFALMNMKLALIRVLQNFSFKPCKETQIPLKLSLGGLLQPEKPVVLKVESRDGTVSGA
Chain of Cytochrome P450 2D6 (P10635 whole entry): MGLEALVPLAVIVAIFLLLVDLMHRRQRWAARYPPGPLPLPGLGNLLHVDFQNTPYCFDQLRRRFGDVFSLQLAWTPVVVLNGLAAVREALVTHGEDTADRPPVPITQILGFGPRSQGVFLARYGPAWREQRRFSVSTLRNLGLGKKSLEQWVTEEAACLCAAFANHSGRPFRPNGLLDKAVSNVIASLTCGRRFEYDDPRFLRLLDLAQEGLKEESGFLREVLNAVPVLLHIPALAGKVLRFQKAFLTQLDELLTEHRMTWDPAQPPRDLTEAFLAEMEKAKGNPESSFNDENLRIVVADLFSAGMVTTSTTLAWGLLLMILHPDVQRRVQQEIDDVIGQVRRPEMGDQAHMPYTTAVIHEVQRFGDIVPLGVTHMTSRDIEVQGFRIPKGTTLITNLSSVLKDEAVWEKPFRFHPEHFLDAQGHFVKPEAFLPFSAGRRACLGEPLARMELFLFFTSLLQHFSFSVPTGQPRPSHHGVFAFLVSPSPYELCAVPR
Chain of Peroxisome proliferator-activated receptor gamma/Nuclear receptor coactivator 2 (P37231 whole entry): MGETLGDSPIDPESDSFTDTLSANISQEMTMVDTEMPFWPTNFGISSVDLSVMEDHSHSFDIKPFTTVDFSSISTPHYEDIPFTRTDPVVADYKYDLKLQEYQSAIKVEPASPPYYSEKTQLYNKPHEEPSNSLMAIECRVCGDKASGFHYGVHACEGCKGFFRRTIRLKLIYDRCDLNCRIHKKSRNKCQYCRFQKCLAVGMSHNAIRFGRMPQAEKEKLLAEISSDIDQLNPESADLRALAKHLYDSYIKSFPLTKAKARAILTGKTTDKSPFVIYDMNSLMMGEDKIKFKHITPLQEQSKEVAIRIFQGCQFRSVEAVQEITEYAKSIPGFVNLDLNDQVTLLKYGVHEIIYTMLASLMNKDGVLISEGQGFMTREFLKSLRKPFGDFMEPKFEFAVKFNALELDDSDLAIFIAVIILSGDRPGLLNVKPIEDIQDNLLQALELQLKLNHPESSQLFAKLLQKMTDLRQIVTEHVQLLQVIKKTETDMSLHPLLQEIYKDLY
Chain of Peroxisome proliferator-activated receptor gamma/Nuclear receptor coactivator 2 (Q15596 whole entry, further chain): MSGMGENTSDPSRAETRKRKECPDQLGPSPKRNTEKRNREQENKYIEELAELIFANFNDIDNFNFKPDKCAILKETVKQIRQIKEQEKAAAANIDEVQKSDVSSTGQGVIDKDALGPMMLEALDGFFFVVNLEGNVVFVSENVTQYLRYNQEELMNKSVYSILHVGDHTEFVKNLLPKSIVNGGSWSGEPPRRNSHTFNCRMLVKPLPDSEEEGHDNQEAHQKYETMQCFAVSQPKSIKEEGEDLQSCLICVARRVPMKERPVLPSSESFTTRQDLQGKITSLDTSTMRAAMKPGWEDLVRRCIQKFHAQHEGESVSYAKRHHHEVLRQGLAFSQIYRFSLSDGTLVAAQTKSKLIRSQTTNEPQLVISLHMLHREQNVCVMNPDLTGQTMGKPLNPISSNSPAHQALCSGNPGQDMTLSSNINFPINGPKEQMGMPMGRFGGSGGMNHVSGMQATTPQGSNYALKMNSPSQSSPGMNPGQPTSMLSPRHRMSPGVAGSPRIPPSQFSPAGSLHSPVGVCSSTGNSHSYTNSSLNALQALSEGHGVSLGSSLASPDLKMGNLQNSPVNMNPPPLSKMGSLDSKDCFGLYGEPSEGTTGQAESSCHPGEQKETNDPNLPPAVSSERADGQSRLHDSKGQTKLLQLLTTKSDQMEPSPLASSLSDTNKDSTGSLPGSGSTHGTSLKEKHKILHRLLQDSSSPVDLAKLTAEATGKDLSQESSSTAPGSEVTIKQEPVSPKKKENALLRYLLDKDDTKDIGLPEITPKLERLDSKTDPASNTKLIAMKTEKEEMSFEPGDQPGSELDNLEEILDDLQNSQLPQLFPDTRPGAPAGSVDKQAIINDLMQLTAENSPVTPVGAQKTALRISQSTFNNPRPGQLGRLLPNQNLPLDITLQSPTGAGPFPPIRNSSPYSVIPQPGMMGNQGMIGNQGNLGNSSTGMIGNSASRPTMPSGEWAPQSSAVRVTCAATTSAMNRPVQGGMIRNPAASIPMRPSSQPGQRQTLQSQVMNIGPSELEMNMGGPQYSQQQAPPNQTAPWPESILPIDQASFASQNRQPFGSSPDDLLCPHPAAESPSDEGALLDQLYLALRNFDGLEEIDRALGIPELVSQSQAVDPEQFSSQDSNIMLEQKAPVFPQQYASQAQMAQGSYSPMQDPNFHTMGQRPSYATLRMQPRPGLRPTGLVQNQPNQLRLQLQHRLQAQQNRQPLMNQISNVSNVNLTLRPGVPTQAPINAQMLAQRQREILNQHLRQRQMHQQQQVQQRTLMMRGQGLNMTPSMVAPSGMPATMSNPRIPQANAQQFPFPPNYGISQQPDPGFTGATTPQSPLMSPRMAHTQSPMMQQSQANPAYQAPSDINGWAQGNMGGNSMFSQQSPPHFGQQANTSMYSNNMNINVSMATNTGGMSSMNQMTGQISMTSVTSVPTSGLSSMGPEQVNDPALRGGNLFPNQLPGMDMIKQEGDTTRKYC
Chain of Peroxisome proliferator-activated receptor gamma/Nuclear receptor coactivator 1 (P37231 whole entry): as the sequence (P37231 whole entry) above
Chain of Peroxisome proliferator-activated receptor gamma/Nuclear receptor coactivator 1 (Q15788 whole entry, further chain): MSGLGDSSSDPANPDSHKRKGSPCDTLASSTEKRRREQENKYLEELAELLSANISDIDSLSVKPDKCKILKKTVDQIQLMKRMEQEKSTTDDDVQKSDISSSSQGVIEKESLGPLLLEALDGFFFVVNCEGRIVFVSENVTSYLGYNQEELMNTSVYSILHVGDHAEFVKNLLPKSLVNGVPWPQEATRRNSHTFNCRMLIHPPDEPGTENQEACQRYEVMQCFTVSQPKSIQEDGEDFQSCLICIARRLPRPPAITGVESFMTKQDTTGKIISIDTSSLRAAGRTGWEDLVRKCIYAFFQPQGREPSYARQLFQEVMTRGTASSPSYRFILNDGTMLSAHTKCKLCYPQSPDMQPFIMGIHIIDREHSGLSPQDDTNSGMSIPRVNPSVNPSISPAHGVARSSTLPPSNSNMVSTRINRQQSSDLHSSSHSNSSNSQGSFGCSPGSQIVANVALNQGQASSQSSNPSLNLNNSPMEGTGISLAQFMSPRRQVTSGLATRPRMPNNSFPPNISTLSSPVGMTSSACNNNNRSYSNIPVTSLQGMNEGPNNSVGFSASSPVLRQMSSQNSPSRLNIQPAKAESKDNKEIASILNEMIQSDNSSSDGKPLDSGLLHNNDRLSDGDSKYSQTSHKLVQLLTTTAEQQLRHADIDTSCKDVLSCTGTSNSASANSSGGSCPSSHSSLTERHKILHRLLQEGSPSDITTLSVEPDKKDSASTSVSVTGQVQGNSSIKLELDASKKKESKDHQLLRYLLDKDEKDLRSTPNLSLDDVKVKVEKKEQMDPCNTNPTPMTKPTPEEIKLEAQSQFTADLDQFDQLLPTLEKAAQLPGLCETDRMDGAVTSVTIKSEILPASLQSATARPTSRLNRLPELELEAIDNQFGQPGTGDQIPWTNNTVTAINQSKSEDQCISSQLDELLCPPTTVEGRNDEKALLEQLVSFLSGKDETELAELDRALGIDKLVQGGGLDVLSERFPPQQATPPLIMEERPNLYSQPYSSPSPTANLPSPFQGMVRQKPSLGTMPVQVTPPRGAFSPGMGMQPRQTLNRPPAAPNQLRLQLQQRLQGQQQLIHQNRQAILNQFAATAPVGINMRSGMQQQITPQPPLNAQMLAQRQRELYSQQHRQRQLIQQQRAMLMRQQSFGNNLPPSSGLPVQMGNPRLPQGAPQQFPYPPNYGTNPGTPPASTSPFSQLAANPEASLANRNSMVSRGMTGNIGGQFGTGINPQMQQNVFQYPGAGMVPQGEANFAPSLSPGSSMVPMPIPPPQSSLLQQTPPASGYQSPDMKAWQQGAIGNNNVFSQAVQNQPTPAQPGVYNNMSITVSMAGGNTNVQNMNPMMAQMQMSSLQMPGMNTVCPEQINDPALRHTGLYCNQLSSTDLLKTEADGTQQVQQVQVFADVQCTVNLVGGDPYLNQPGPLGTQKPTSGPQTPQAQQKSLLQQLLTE

Regarding `C=CCOc1ccc(/C=C2/C(=O)ON=C2C)cc1OCC`, the IC50 in series [1] is > 100 µM (active).

Take `O=C(c1cc(C(F)(F)F)cc(C(F)(F)F)c1)N1CCC2(CCN(Cc3nccs3)CC2)CC1`: the AC50 entry was “inconclusive” in series [2] and 10 µM (inconclusive) in [3].

For `O=C(Nc1cccc(F)c1)N1CCC2(CC1)CCN(C(=O)c1ccco1)CC2`, the values for the AC50 result in series [2] and in series [4] were “inconclusive” and 10 µM (inconclusive), respectively.

For `CCCC(=O)NC(c1ccc(Cl)cc1Cl)c1ccc2cccnc2c1O` (centres undefined), the EC50 in series [5] was 7.39 µM (active); in series [10], 1.01 µM (active); in series [11], 0.543 µM (active); in series [12], 0.102 µM (active); in [13] it was 7.38 µM (active); in series [16] it was > 350 µM (not active). The half-maximal activity concentration (AC50) in [6] is 3.61 µM (active); in [8], > 70 µM (inactive); in [14], 0.638 µM (active); in [17] it was 0.491 µM (active). Moreover, in series [7], the half-maximal cytotoxic concentration (CC50) was 1.15 µM (active). For the same compound, the IC50 in [9] and in [15] was > 119 µM (inactive) each time.

Take `Cn1c(=O)c(-c2ccc(F)cc2)nc2cnc(Oc3ccccc3)nc21`: the AC50 result in series [2] is “inconclusive”.

On to `CCn1c2c(c3cc(Br)ccc31)CCC/C2=N\O`, for which the EC50 in series [18] was 25.7 µM (not active); in series [19], 10.8 µM (active); in series [20] it was 10.8 µM (active); in series [21], > 79.4 µM (inactive); in series [22], > 79.4 µM (not active).
